Literature values as cited in patent US20220088278A1, “Covered Stent For Local Drug Delivery” (BIOTRONIK AG, priority 2019, published 2022).

Tested on: main bile duct of pancreatic cancer patients
Details: thirty-six pancreatic cancer patients

CC(=O)O[C@H]1C(=O)[C@@]2(C)[C@H]([C@H](OC(=O)c3ccccc3)[C@]3(O)C[C@H](OC(=O)[C@H](O)[C@@H](NC(=O)c4ccccc4)c4ccccc4)C(C)=C1C3(C)C)[C@]1(OC(C)=O)CO[C@@H]1C[C@@H]2O [paclitaxel]
duct patency duration versus covered stent without drug: did not significantly differ
